Data published in patent US11370788B2, “Substituted imidazo[4,5-c]quinoline compounds with an N-1 branched group” (3M INNOVATIVE PROPERTIES COMPANY, priority 2018, dated 2022).

System: Human peripheral blood mononuclear cells (PBMC)
Experiment: Cytokine Induction in Human Cells (PBMC)
Format: cell-based
Conditions: 21-24 hours culture, lowest concentration giving cytokine at least 2× negative control; for MEC to Induce Cytokine IFN-alpha: ELISA; for MEC to Induce Cytokine IFN-gamma / MEC to Induce Cytokine TNF-alpha: multiplex bead assay
Procedure: Whole blood was obtained from healthy human donors and collected by venipuncture into vacutainer tubes or syringes containing EDTA. Human peripheral blood mononuclear cells (PBMC) were purified from the whole blood by density gradient centrifugation. Histopaque 1077 (15 mL, Sigma, St. Louis, Mo.) was transferred to 6×50 mL sterile polypropylene conical tubes. The Histopaque was overlayed with 15-25 mL of blood diluted 1:2 in Hank's Balanced Salts Solution (HBSS) (Gibco, Life Technology, Grand Island, N.Y.). The tubes were then centrifuged at 1370 rpm for 30 minutes at 20° C., with no brake (400λg, GH 3.8A Rotor).
The interface (buffy coat) containing the PBMC was collected and placed in a new sterile 50 mL conical polypropylene centrifuge tube. The PBMC were mixed with an equal volume of HBSS (about 20 mL from the interface and about 20 mL of HBSS), and then centrifuged at 1090 rpm, 10 minutes, 20° C., with brake (270λg, GH 3.8A Rotor). After completing centrifugation, the cells were resuspended in 2 to 3 mL ACK Red blood cell lysis buffer (ammonium chloride potassium solution, Gibco, Life Technology) and incubated for 2-5 minutes at 20° C. Next, HBSS (40 mL) was added to the cells, and the sample was centrifuged at 270×g for 10 minutes at 20° C. The supernatant was decanted, and the cell pellet was resuspended in 5 mL AIM V Medium (Gibco, Life Technology). Cell aggregates and debris were removed by filtering the cell solution through a BD Falcon 70 micron nylon cell strainer (BD Biosciences, San Jose, Calif.).
The number of viable cells was determined by counting with a Miltenyi FACS instrument (Miltenyi Biotec Inc., San Diego, Calif.) or by using a hemacytometer. For determining cell viability with a hemacytometer, the cells were diluted 1/10 in 0.4% trypan blue and HBSS (specifically, 50 microliter of trypan blue+40 microliter of HBSS+10 microliter of cell solution were added to a microfuge tube and mixed). Ten microliters of the diluted cells were then applied to the hemacytometer, and the number of viable PBMC were determined by microscopy.
The PBMC sample was then resuspended in 96-well plates at a concentration of 8×10^5 cells/well in 0.1 mL of AIM-V medium. Each compound was solubilized in DMSO to create a 3 mM stock solution. The stock solution was then further diluted with AIM-V medium to prepare the serial dilutions. The diluted compound (100 microliters) was then transferred to the PBMCs to achieve final compound concentrations of 30, 10, 3.3, 1.1, 0.37, 0.12, 0.04, 0.01 micromolar. The plates also had both positive and negative controls. The negative control wells contained only AIM-V medium with no example compound. The positive control wells contained imiquimod serially diluted to concentrations of 30, 10, 3.3, 1.1, 0.37, 0.12, 0.04, 0.01 micromolar. The plates were then cultured at 37° C./5% CO2 for 21-24 hours. Cell-free supernatants were harvested by centrifuging the 96-well plates at 2100 rpm, 23° C. for 10 minutes. Approximately 160 microliter of the supernatant was then stored in a NUNC 96-well plate, covered with the compression cap and stored at −80° C. until the cytokine analysis was done.
IFN-alpha cytokine levels (picograms/mL) were measured by ELISA (human IFN-alpha, pan specific, Mabtech, Cincinnati, Ohio). IFN-gamma and TNF-alpha levels (picograms/mL) were measured by multiplex bead assay (magnetic beads, R & D Systems, Minneapolis, Minn.) according to the manufacturer's instructions.
Specifically, the minimum effective concentration of each compound (micromolar) was determined as the lowest concentration of the compound that induced a measured cytokine response at a level ([…]) that was at least 2× greater than that observed with the negative control wells.

Row | Structure (SMILES) | MEC to Induce Cytokine IFN-alpha [µM] | MEC to Induce Cytokine IFN-gamma [µM] | MEC to Induce Cytokine TNF-alpha [µM]
1 | CCCCCCCCCCCCOc1ccc(C[C@@H](COCC)n2cnc3c(N)nc4ccccc4c32)cc1 [Example 1, 1-[(1 S)-1-[(4-dodecoxyphenyl)methyl]-2-ethoxy-ethyl]imidazo[4,5-c]quinolin-4-amine] | 3.3 | 10 | 3.3
2 | CCCCCCCCOc1ccc(C[C@@H](COCC)n2cnc3c(N)nc4ccccc4c32)cc1 [Example 2, 1-[(1S)-1-(ethoxymethyl)-2-(4-octoxyphenyl)ethyl]imidazo[4,5-c]quinolin-4-amine] | 0.12 | 0.37 | 0.37
3 | CCCCOc1ccc(C[C@@H](COCC)n2cnc3c(N)nc4ccccc4c32)cc1 [Example 3, 1-[(1S)-1-[(4-butoxyphenyl)methyl]-2-ethoxy-ethyl]imidazo[4,5-c]quinolin-4-amine] | ≤0.01 | ≤0.01 | ≤0.01
4 | CCCCCCOc1ccc(C[C@@H](COCC)n2cnc3c(N)nc4ccccc4c32)cc1 [Example 4, 1-[(1S)-1-(ethoxymethyl)-2-(4-hexoxyphenyl)ethyl]imidazo[4,5-c]quinolin-4-amine] | ≤0.01 | ≤0.01 | ≤0.01
5 | CCCCC(CC)COc1ccc(C[C@@H](COCC)n2cnc3c(N)nc4ccccc4c32)cc1 (stereo partly drawn) [Example 5, 1-[(1 S)-1-(ethoxymethyl)-2-[4-(2-ethylhexoxy)phenyl]ethyl]imidazo[4,5-c]quinolin-4-amine] | 0.37 | 0.04 | ≤0.01
6 | CCOC[C@H](Cc1ccc(OCc2ccccc2)cc1)n1cnc2c(N)nc3ccccc3c21 [Example 6, 1-[(1S)-1-[(4-benzyloxyphenyl)methyl]-2-ethoxy-ethyl]imidazo[4,5-c]quinolin-4-amine] | ≤0.01 | ≤0.01 | ≤0.01
